Source: US10526309B2, “Pan-TAM inhibitors and Mer/Axl dual inhibitors” (The University of North Carolina at Chapel Hill, priority 2015, dated 2020)

Biological target: T1, FLT3 (Homo sapiens, UniProt P36888)
T1 sequence (P36888 27-993): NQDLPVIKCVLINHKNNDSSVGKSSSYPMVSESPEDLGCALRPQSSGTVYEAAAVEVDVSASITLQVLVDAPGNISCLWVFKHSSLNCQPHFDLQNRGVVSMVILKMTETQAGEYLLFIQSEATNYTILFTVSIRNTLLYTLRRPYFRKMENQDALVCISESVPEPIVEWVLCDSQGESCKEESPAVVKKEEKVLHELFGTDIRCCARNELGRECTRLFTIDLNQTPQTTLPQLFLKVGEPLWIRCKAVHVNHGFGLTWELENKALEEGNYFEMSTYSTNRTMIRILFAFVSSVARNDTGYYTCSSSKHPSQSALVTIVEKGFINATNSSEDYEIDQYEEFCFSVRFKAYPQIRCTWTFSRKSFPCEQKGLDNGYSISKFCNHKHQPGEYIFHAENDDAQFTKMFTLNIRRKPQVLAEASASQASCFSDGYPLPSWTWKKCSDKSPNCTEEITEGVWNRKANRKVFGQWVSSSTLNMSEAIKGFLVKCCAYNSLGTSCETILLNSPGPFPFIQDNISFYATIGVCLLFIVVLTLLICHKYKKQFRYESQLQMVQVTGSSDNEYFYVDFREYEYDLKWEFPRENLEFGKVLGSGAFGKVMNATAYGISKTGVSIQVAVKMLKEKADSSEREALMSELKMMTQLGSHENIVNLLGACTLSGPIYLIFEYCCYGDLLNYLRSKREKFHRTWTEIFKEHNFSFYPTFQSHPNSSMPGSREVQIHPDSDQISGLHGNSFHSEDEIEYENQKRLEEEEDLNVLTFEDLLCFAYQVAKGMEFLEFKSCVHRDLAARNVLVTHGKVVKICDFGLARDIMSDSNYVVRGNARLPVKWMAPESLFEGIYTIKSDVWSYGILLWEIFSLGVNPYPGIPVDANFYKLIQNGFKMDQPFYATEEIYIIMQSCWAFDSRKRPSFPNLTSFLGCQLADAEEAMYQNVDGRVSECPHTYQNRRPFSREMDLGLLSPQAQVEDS
Assay: FLT3 kinase inhibition IC50
Assay type: biochemical
Settings: Example 6

IC50: 0.76 nM
SMILES: O[C@H]1CC[C@H](Nc2nc(Nc3ccccc3)ncc2-c2ccc(CN3CCCC3)cn2)CC1 [UNC4198A]
